melting point	SMILES
133 to 138 °C	O=C(Cc1ccccc1)Nc1ccc(-n2nc(C3CC3)cc2C2CC2)cc1
208 to 210 °C	Cc1cc(Cc2c(F)cc(N)cc2F)n(C)c1C(=O)c1ccc(Cl)cc1
168 to 170 °C	O=C1c2ccccc2C(=O)N1n1cccc1-c1ccccc1
152 °C	Cc1cc(-n2nc(C#N)cc2-c2ccc(S(C)(=O)=O)cc2)ccc1Br
91 to 93 °C	COCC(c1cc(C)ccc1C)S(=O)(=O)c1ccccn1 (configuration not stated)
39 to 40 °C	COc1ccc(-c2ccc(C)c(OCC(OC)OC)c2)cc1
123 to 124 °C	NC(=O)C(OCc1ccc(-c2ccc(Cl)cc2)cc1)(C(F)(F)F)C(F)(F)F
85 to 88 °C	COC(=O)c1cccc(-c2cn(C)cc(-c3ccc(C)cc3)c2=O)c1
243 to 245 °C	COc1ccc2[nH]c3c(C)cnc(Cl)c3c2c1
204 to 206 °C	Nc1nc(-c2ccccc2)c(-c2ccc(=O)n(CC3CC3)n2)s1
120 to 122 °C	Cn1c(C(F)(F)F)cc(=O)n(-c2cc(OCOc3ccc(Cl)cc3)c(Cl)cc2F)c1=O
100 to 102 °C	CCCCCNC(=O)N(C)c1cccc(-c2ccc(CCC(=O)O)cc2)c1
94.5 to 96 °C	CC(O)(C#Cc1ccc(C(=O)c2ccccc2)cc1)C(F)(F)F (configuration not stated)
213 to 214 °C	CC(C)(C)OC(=O)N1CCC(Oc2ccc(C3=NNC(=O)CC3c3ccccn3)cc2)CC1 (configuration not stated)
70 to 71 °C	O=C(NCCCc1cccc2oc(CCCCc3ccccc3)cc12)C1CC1
62 to 63 °C	CCc1cc(OCc2ccccc2)cc(=O)o1
168 °C	CC(=O)c1ccc(C2=NC[C@@H](OC(=O)Nc3ccccc3)[C@H](c3ccccc3)O2)cc1 (racemic)
> 330 °C	CC(C)(C)c1ccc(N2C(=O)c3ccc4c5cccc6cccc(c7ccc(c3c47)C2=O)c65)cc1
195 to 197 °C	CN(c1ncnc2c1ncn2C1OC(CO)C(O)C1O)n1cccc1 (configuration not stated)
88 °C	CSc1ncnn1C[C@]1(c2ccc(F)cc2)O[C@@H]1c1cccc(Cl)c1F (relative stereo)
83 to 85 °C	O=C(CCN1CCN(c2cccc3[nH]ccc23)CC1)c1csc2ccccc12
119 to 121 °C	O=Cc1ccc(-c2ccc(-c3ccccc3)s2)s1
177 to 181 °C	Cc1ncc2cc(-c3c(Cl)cccc3Cl)c(NC(=O)N(C)C)nc2n1
127 to 129 °C	CC(=O)C(C)Oc1nn(C(C)C(C)=O)c(-c2ccc(S(C)(=O)=O)cc2)c1-c1ccc(F)cc1 (configuration not stated)
264 to 265 °C	COc1ccc2c(c1)-c1nn(CCCl)c3ccc([N+](=O)[O-])c(c13)N2
208 to 209 °C	Cn1cncc1-c1cccc(Nc2nccc3ccccc23)c1
139 to 140 °C	CN1Cc2cccnc2N(c2cccc(Cl)c2)C1=O
134 to 136 °C	Clc1ccc(-c2cn3c(n2)CCCC3)c(Cl)c1
190 to 192 °C	CCOC(=O)c1cn(-c2ccc(F)cc2F)c2nc(OC)c(F)cc2c1=O

Second part, the compound before the results:

SMILES	melting point
CC(Cl)N1C(=O)CCC1=O (configuration not stated)	83.5 to 84.5 °C
COc1ccc(C#Cc2ccc(C(=O)O)s2)cc1C12CC3CC(CC(C3)C1)C2	244 to 245 °C
COc1ccc(C(=O)c2[nH]c(=S)[nH]c2C)cc1	200 °C
CCOC(=O)c1ccc(C#CCO)cc1	58 to 60 °C
COC(=O)c1cccc(OC)c1I	58 to 61 °C
C=CCOc1ccc(C[C@@H](NC(C)=O)C(=O)O)cc1	75 °C
CC12CCC3C(CCC4=C(N)C(=O)CCC43C)C1CCC2=O (configuration not stated)	186 to 188 °C
CCCOc1ccc(S(=O)(=O)N2CCN(CCOC(=O)CC)CC2)cc1-c1nc2c(CCC)cn(CC)c2c(=O)[nH]1	126 to 128 °C
O=[N+]([O-])C(CN1CCOCC1)=C1NCCCS1	131 to 132 °C
N#CCC(=O)NCc1cccc(Cl)c1	123 to 125 °C
N=C(N)c1nc2c(s1)CCc1c-2sc2ncnn12	> 300 °C
CCC1(CCI)C(=O)N2CC=CC(C(=O)OC)N2C1=O (configuration not stated)	95 to 97 °C
CSc1[nH]c2cccc3c2c1CC1C3C=C(C)CN1C (configuration not stated)	148 to 150 °C
CCOCCN(CC1=CCC(N)(Oc2ccccc2)C=C1)C(=O)C(Cl)Cl (configuration not stated)	96 to 98 °C
Cc1cc(C(=O)c2cc(C(F)(F)F)cc(C(F)(F)F)c2)ccc1N(C)C	145 to 147 °C
CCCCNc1cc(C(=O)O)cc(S(N)(=O)=O)c1Sc1ccc(N)cc1	232 to 234 °C
CC(C)(C)c1cc(Br)c(O)c(Br)c1	65 to 69 °C
CCCOc1cc(OCCC)c2c(C)c(CCO)c(=O)oc2c1	106 to 108 °C
NC(=O)C1(CCCCCCCCCCCCC2(C(=O)O)CC2)CC1	117 to 118 °C
CC(=O)N(C)C1CCNCC1	< 50 °C
C/C=C/CNC(=O)N1CC(Oc2cccc(C(F)(F)F)c2)C1	127 to 128 °C
CCC(C)(C)C1CC=C(C(=O)O)CC1 (configuration not stated)	123 to 125 °C
CN(C)C=CC(=O)c1cccc(Cl)c1	68 to 70 °C

From a melting point compilation (Tetko et al.; mined from patent text by program, amines drawn as free bases though some values may be those of a salt)
